For 84 molecules, melting point results are on record in a melting point compilation (Tetko et al.; mined from patent text by program, amines drawn as free bases though some values may be those of a salt).

`CCOC(=O)c1cn(C2CC2)c2nc(N3C[C@@H](CN(CC)C(=O)C(F)(F)F)[C@@H](F)C3)c(F)cc2c1=O` (relative stereo) yielded a melting point of 150 to 153 °C.

For `CCN1C(=O)C(C)(C)C(=O)N(C)c2cc(CN(CCn3cc(C)c4occc4c3=O)Cc3cc(COC)nn3C)ccc21`, the melting point fell in the range of 169 to 170 °C.

Take `O=C1CCC(c2ccc3nc(-c4ccncc4)[nH]c3c2)=NN1`: the melting point was greater than 320 °C.

In the case of `O=C(Nc1ccc2nc(CN3CCCC3)ccc2c1)C1CCN(c2ccc(Cl)cc2)CC1`, the melting point lay within 204 to 206 °C.

As for `CC(C)C(=O)N1CCC(c2nc3cc(-c4ccc(-n5cnnn5)cc4F)ccc3o2)CC1`, the melting point was 190 to 194 °C.

For the molecule `Cc1cc(C(N)=O)co1`, the melting point was determined as 158 °C.

Take `COc1cccc(CNc2nc(SCc3ccccc3)nc3nc[nH]c23)c1O`: the melting point lay in the range of 193 to 194 °C.

Consider `CCCCn1c(S)nc2ccccc2c1=O`, for which the melting point fell in the range of 167 to 172 °C.

Regarding `Clc1ccc(Cl)c(CN2CCNc3ncc(-c4ccc(N5CCCC5)nc4)cc32)c1`, the melting point is greater than 200 °C.

`O=[N+]([O-])c1ccc(C=Cc2ccc(N3CCC(O)CC3)cc2)cc1` returned a melting point of 248 to 250 °C.

In the case of `CC1=NSc2c(F)c(F)c(F)c(F)c2N1Cc1ccc(-c2ccccc2C(=O)OC(C)(C)C)cc1`, the melting point is 177 to 179 °C.

Regarding `Clc1nc(NCCCCC=C(c2ccccc2)c2ccccc2)c2nc[nH]c2n1`, the melting point was 206 to 207 °C.

`Cn1c2ccc(F)cc2c(=O)n2nc(C(N)=O)cc12`: the melting point is greater than 350 °C.

For the molecule `O=C(Nc1ccc(CN2CCCCC2)cc1)C1=Cc2cc(C3CCCCC3)ccc2CC1`, the melting point was 180 to 181 °C.

Molecule `COc1cccc(NC(=O)/C=C(\C)c2cc3cccc(OCCCC(=O)O)c3o2)c1` returned a melting point of 156 to 158 °C.

Turning to `O=S1(=O)N=CN(C2CCCCCC2)c2cc(Cl)ccc21`, the melting point lay in the range of 209 to 211 °C.

Molecule `C#Cc1cnn2c(C(F)(F)F)cc(-c3cccc(C(F)(F)F)c3)nc12` came in with a melting point of 154 °C.

`CC(CCc1nnn[nH]1)Oc1cccc(OCc2ccc3ccccc3n2)c1` (centres undefined) had a melting point of 147 to 149 °C.

The molecule `O=c1[nH]c2cc(Cl)ccc2c(O)c1-c1ccccc1Cl` showed a melting point greater than 300 °C.

For the molecule `COc1ccc2cc3c(N)nn(CCN4CCOCC4)c3nc2c1`, the melting point lay within 166 to 168 °C.

Turning to `COC(=O)Nc1cc(F)ccc1C(=O)O`, the melting point is 162 °C.

Consider `O=C1CCC(N2C(=O)c3cccc(NC(=O)c4cccc([N+](=O)[O-])c4)c3C2=O)C(=O)N1` (centres undefined), for which the melting point was in the range of 245 to 247 °C.

`Cc1ccc2c(Cl)ccnc2c1NC(=O)c1c(Cl)cccc1Cl` gave a melting point of 202 to 205 °C.

`CCOC(=O)C1(CCCC(=O)OC(C)(C)C)CCn2c(cc3ccccc32)C1=O` (centres undefined) registered a melting point of 104 °C.

For `CCCCNC(=O)c1ccc(S(=O)(=O)NCCCC)o1`, the melting point came out at 69.4 °C.

As for `CC(COc1c(-c2ccccc2)c(=O)oc2c(Cl)cccc12)CN1CCOCC1` (centres undefined), the melting point was 120 to 122 °C.

On to `Cc1ccc2c(NCc3ccc(NC(=O)C4CCN(Cc5ccccc5)CC4)cc3)nc(Cl)nc2c1`, for which the melting point is 212 °C.

In the case of `C[C@H]1CN(c2c(F)cc3c(=O)c(C(=O)O)cn(CCF)c3c2Cl)C[C@H]1N` (relative stereo), the melting point was in the range of 234 to 236 °C.

The molecule `CC(C)(C)c1cc(-n2ccc(=O)[nH]c2=O)cc(-c2ccc3cc(NS(C)(=O)=O)ccc3c2)c1Cl` had a melting point greater than 280 °C.

In turn, `CCc1ccc2c(c1)OC1(O)c3ccccc3C(=O)C21O` (centres undefined) returned a melting point of 168 to 169 °C.

`COc1ncc(-c2nn(C(C)c3oc4ccccc4c(=O)c3-c3cccc(F)c3)c3ncnc(N)c23)cn1` (centres undefined) had a melting point of 224 to 227 °C.

Regarding `Cc1ccc(Cn2c(=O)c3c(N4CCN(C)CC4)cc(Cl)cc3n(Cc3ccccc3)c2=O)cc1`, the melting point lay in the range of 92 to 97 °C.

In turn, `COc1cc(C(=O)N2Cc3ccc(C(=O)NCc4cccc(C)c4)n3Cc3ccccc32)ccc1-c1ccccc1C` registered a melting point of 165 to 166 °C.

Turning to `CCCCCCCNC(=O)Nc1ccc(O)cc1C(=O)NCC1CCN(C(c2ccccc2)c2ccccc2)CC1`, the melting point lay within 165 to 167 °C.

`COc1ccc(S(=O)(=O)N2c3ccc(Br)cc3-c3ccccc3C2C(C)(C)C)cc1` (centres undefined) registered a melting point of 195 to 198 °C.

As for `COc1cc(OCc2ccccn2)ccc1/C=C/C(=O)CC(=O)/C=C/c1cc2ccccc2s1`, the melting point was 188 °C.

For the molecule `Nc1c(F)c(N2CCC(n3ccnn3)C2)c(F)c2c1c(=O)c(C(=O)O)cn2-c1ccc(F)cc1F` (centres undefined), the melting point lay within 308 to 309 °C.

In turn, `CN(C)c1ccc2c(c1)C(C)(C)C1(C=Cc3cc([N+](=O)[O-])ccc3S1)N2C` (centres undefined) yielded a melting point of 166 to 167 °C.

On to `CCOC(=O)c1cnc2nn(CC)cc2c1O`, for which the melting point lay in the range of 197 to 198 °C.

On to `Cc1cccc(NC(=O)NCC(=O)N2[C@@H](C(=O)OC(C)(C)C)C[C@@H](C#N)[C@H]2c2ccccc2)c1` (racemic), for which the melting point stood at 150 °C.

As for `CC(C)n1nc(-c2c(-c3ccccc3)nn3ccc(OCCC4CCCC4)cc23)ccc1=O`, the melting point turned out to be 160 °C.

`CCCC1=C(Cl)C(=O)c2ccccc2C1=O` gave a melting point of 71 to 73 °C.

Take `CCN1C(=O)C(C)(C)C(=O)N(C)c2cc(OCCCN3C(=O)Cc4ccccc43)ccc21`: the melting point fell in the range of 146 to 149 °C.

Turning to `CC(C)c1cccc(C(C)C)c1NC(=O)CN(CC1(Nc2ccccc2)CCCCC1)C(=O)OC(C)(C)C`, the melting point was 125 to 127 °C.

Turning to `CCCCc1nc(=O)c2ccc(C(=O)OCC)cc2[nH]1`, the melting point turned out to be 145 °C.

The molecule `CC(=O)Nc1ccc2c(c1)cc(C(=O)O)n2Cc1ccc(Cl)c(Cl)c1` registered a melting point of 245 to 246 °C.

`CN(C)NC(=NS(=O)(=O)c1ccc(Cl)cc1)N1CC(c2ccccc2)C(c2ccc(Cl)cc2)=N1` (single isomer, unassigned; (-)) had a melting point of 218 to 224 °C.

On to `Cn1c2c(ccc1=O)C(C)(N)CCC2` (centres undefined), for which the melting point lay within 166 to 168 °C.

In the case of `Cn1c2ccc(Cl)cc2c2c3ccccc3c(=O)[nH]c21`, the melting point is greater than 300 °C.

`O=C(O)Cc1cc(C(=O)c2ccccc2Cl)ccc1O` displayed a melting point of 148 °C.

For `CCN(CC)CCNC(=O)c1ccc(NC(=O)c2ccc3c(c2)OCO3)cc1OC`, the melting point was 131 °C.

`N#Cc1ccc(C(=C2CCCCCC2)c2ccc(O)cc2)cc1`: the melting point fell in the range of 110 to 111 °C.

As for `COC(=O)Nc1cc(=O)[nH]c(N)n1`, the melting point is 186 to 188 °C.

`Cc1ccc(-c2nccc3c(CO)cccc23)cc1` had a melting point of 195 °C.

`CC(C)(C)OC(=O)Nc1ccc(-c2ccccc2F)cc1N` yielded a melting point of 100 to 103 °C.

As to `CCN(CC)CCCOc1cccc(-c2oc3ccccc3c2C(=O)c2cc(C)cc(C)c2)c1`, the melting point lay in the range of 114 to 121 °C.

`Nc1nc2nc(SCc3ccccc3)ncc2cc1Oc1ccc(F)cc1` had a melting point of 186 to 192 °C.

With `CCOC(=O)c1cnn(-c2ccc(O)c(C#N)c2)c1`, the melting point fell in the range of 233 to 234 °C.

As for `COc1c(Br)cc(Br)cc1CC#N`, the melting point is 87 to 88 °C.

As to `O=c1[nH]cnc2sc(Br)cc12`, the melting point came to 304 °C.

Molecule `O=C(O)c1csc(Nc2ccc(C(F)(F)F)cc2)n1` gave a melting point of 255 to 259 °C.

In turn, `O=C(O)CC(NS(=O)(=O)c1ccc2ccccc2c1)c1ccc2c(c1)OCO2` (centres undefined) yielded a melting point of 173 to 175 °C.

`Cc1cc([N+](=O)[O-])c(Cl)c([N+](=O)[O-])c1CBr`: the melting point fell in the range of 115 to 120 °C.

In the case of `Cc1c(NC(=O)NCC(C)O)c(C)c2c(c1-c1ccccc1)OCC2c1ccc(C(C)C)cc1` (centres undefined), the melting point was in the range of 171 to 182 °C.

`COc1ccc(CNC(=O)c2cc3c(=O)n(CC#N)c(=O)n(C)c3s2)cc1` returned a melting point of 180 to 183 °C.

Molecule `CCOC(=O)Nc1cc(F)c(C#N)cc1F` showed a melting point of 107 °C.

Regarding `O=C1c2c(Cl)cccc2-n2cnc(-c3nc(CN4CCCC4)cs3)c2[C@@H]2CCCN12`, the melting point lay in the range of 213 to 214 °C.

`CS(=O)c1nnc(-c2ccc3occ(-c4ccc(OC(F)(F)F)cc4)c3c2)o1` (centres undefined): the melting point was in the range of 134 to 135 °C.

Molecule `Cc1cc(C)cc(-c2cnn3c(-c4cccc(-c5nnn(CCN6CCCC6)n5)c4)ccnc23)c1` returned a melting point of 60 °C.

In turn, `CCCNC1=NS(=O)(=O)c2c(sc(C)c2C#N)N1C(=O)OCC` registered a melting point of 175 to 179 °C.

`CC(C)c1cccc(C(C)C)c1NC(=O)CNC(c1ccccc1)c1cccc2ccccc12` (centres undefined): the melting point was in the range of 149 to 151 °C.

On to `O=C(C(=O)N1C(=O)CC[C@H]1C(=O)O)c1ccccc1`, for which the melting point was 151 to 152 °C.

On to `CCCCCCN(C)C(=O)c1cccc(CN2C(=O)C3(COc4cc5c(cc43)CCO5)c3ccccc32)c1` (centres undefined), for which the melting point was 73 to 74 °C.

`C=CCOc1cc2c(cc1C)OC1(CC2(C)C)CC(C)(C)c2cc(OCC=C)c(C)cc2O1` displayed a melting point of 98 to 100 °C.

Turning to `O=C1Nc2ccc(Oc3ccccc3)cc2SC(c2ccc3c(c2)OCO3)C1O` (centres undefined), the melting point was 228 to 230 °C.

`O=C1C(=O)c2ccccc2C2=C1SCC1(CCN(C(=O)c3nc4ccccc4[nH]3)CC1)O2` yielded a melting point of 266 to 268 °C.

On to `CC(C)(C)c1cc(CCCBr)cc(C(C)(C)C)c1O`, for which the melting point was 52 to 54 °C.

Turning to `CC(=O)COc1ccc(Cl)cc1Cc1ccccc1`, the melting point fell in the range of 65 to 66 °C.

`CS(=O)(=O)OC(c1ccc(C(O)(C(F)(F)F)C(F)(F)F)cc1)(C(F)(F)F)C(F)(F)F` registered a melting point of 160 °C.

`C[C@@H](n1cnc2cc(N3CCOCC3)ccc2c1=O)[C@](O)(Cn1cncn1)c1ccc(F)cc1F` showed a melting point of 196 to 197 °C.

`O=C(O)Cc1c(C(=O)c2ccc(Cl)cc2)[nH]c2cc(Cl)ccc12`: the melting point lay within 181 to 183 °C.

`CC(=O)N(c1ccccc1)c1[nH]c2ccccc2c1Sc1ccccc1` had a melting point of 66 to 68 °C.

Molecule `CCOC(=O)c1ccc(C(C)=Cc2ccc3ccccc3c2)cc1` showed a melting point of 96 °C.

In turn, `Cc1ccc2c(c1)C1CN(CCO)CCC1N2` (centres undefined) displayed a melting point of 182 to 185 °C.
